Earlier results, collected in article PMC11320581 (ACS Infectious Diseases, 2024).

System: M. tuberculosis gyrase with single-resistance mutations at GyrA Ala90 and Asp94
Settings: cited from earlier work

Compound: C[C@@H]1CN2c3c(cc4c(N5C(=O)OC[C@@H]5C)noc4c3F)CC3(C(=O)NC(=O)NC3=O)[C@H]2[C@H](C)O1 [zoliflodacin, Zoliflodacin]
- maximal double-stranded DNA scission with fluoroquinolone-resistant gyrases, fold higher than wild-type: 2- to 5 fold
